Test results reported in patent publication US6841361B1, “Methods of producing recombinant insulin from novel fused proteins” (Itoham Foods Inc., priority 1999, dated 2005).

Assay: Plasma glucose level after subcutaneous injection of insulin in rabbits
Type: in vivo, Japanese Wister rabbit
Conditions: rabbit, 0.5 ml of 1 unit/ml
Description: For each insulin sample, an aliquot was taken from the fractions so that the insulin contents for both kinds of insulin calculated based on the main peak areas became same, and then dried.
The resulting solution (0.5 ml) was subcutaneously injected to the back of a Japanese Wister rabbit (Kbs:JW, […]). After the injection, blood was collected from the anterior auricular vein of the rabbit over a period of time. Each blood sample (0.45 ml) was added with a mix of glycolysis-inhibiting agents (NaF: 12.5 mg/ml, heparin-Na: 125 units/ml, EDTA-2Na: 48 mg/ml) ([…]]) and fully mixed. The mixed solution was centrifuged at 3,000 rpm for 15 min. at 5° C., and the supernatant was used as a plasma sample. For each plasma sample, the plasma glucose level was determined using a biochemical automated analyzer (CIBA-CORNING; Express PLUS), and the plasma insulin level was determined using EIA kit (Wako Pure Chemical Industries, Ltd.).

Novolin: a commercially available insulin, Novolin 40, (Novo Nordisk Pharma); insulin fractions re-purified by HPLC before testing
time course of the plasma glucose level after the injection of insulin (subcutaneous injection to the back, FIG. 9): showed the decrease in plasma glucose level | plasma glucose level compared with ITOHAM insulin (subcutaneous, relative to ITOHAM insulin): slight lower plasma glucose level
